15 molecules from patent US6114537A, “Process for scavenging thiols” (Apotex Inc., priority 1997, dated 2000) can be followed below.

SMILES strings stand for the structures.

The target in data set [1] is Cathepsin L (Homo sapiens, UniProt P07711). Briefly: Inhibition of Cathepsin L, enzyme assay and kinetic measurements. It is filed as biochemical. Particulars: for kinact/KI: approximates kon, read-out: kabs /[inh] (cathepsin L); for inhibition at 5 µM: 5 μM [inhibitor]. The source says: (§1) Inhibition of Cathepsin B, Cathepsin L and Papain by 1,2,4-thiadiazoles and 1,2,4-thiadiazole[4,5-a]benzimidazole derivatives: Enzyme Assays and Kinetic Measurements
(§2) Conditions for the above experiments can be found in the following references: Menard R. et al., Biochemistry 1990, 29, 6706-6713; Fox T. et al., Biochemistry 1992, 31, 12571-12576; Cannona E. et al., Biochemistry 1996, 35, 8149-8157. A typical experiment consisted of choosing an inhibitor concentration such that maximum inhibition could be achieved in less than two hours, monitoring the complete progress curve (i.e. fluorescence vs time), and analyzing the data. The analysis yield two parameters: the % inhibition once steady state was re ached, and a rate constant which represents the rate at which this steady state is reached. Typically, the enzyme activity decreases with time until the maximum level of inhibition is reached (i.e. steady state) where the enzyme activity remains constant. Since significant levels of activity could still be detected at steady state (i.e. inhibition is not complete), the data was fitted to equation (1), which is normally used for slow-binding reversible inhibitors. [formula]
(§3) % inhibition=(1-v1 /vo).100 (2)
(§4) In this equation, [P] represents the concentration of product (obtained from the flourescene readings), kabs is the first order rate constant to reach steady state, vo is the initial rate which corresponds to the rate in the absence of the inhibitor, and vi is the rate of the inhibited enzyme at steady state. The % inhibition was obtained by using equation (2), where the rate measured in the absence of the inhibitor was used for vo. An example of a simple mechanism for such a process is given below: [formula] For this mechanism, the value of kabs determined experimentally would correspond to:
(§5) The value of kabs varies with inhibitor concentration. Often koff is much slower than kon [inh] and kabs /[inh] can be used to approximate kon. This approach is used in this study and the results are shown in below: […]

In data set [2] the target is Cathepsin B (Rattus norvegicus, UniProt P00787). Briefly: Inhibition of Cathepsin B, enzyme assay and kinetic measurements. Type of data set: biochemical. The note with it: for kinact/KI: approximates kon, read-out: kabs /[inh] (cathepsin B); for inhibition at 200 µM: 200 μM [inhibitor].
Text: as §1, §2, §3, §4, §5

Data set [3] deals with T1, Papain (Carica papaya, UniProt P00784).
T1 sequence (P00784 134-345): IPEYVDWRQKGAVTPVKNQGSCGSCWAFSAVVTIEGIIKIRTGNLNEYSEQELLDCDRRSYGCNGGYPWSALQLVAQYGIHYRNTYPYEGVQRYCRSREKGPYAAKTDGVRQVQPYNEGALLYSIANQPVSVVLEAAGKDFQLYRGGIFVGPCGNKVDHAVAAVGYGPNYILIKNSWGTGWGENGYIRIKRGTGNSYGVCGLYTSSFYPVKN
Nature of the data set: Inhibition of Papain, enzyme assay and kinetic measurements. It is filed as biochemical. The note with it: for kinact/KI: approximates kon, read-out: kabs /[inh] (papain); for inhibition at 200 µM: 200 μM [inhibitor] (printed 200 μm); for inhibition at 1 µM: 1 μM [inhibitor].
Text: as §1, §2, §3, §4, §5

Data set [4] is described as follows: Reaction with benzyl mercaptan. Type of data set: physicochemical. The note with it: organic solvent such as methanol. The source says: The chemical reactivity of monocyclic 1,2,4-thiadiazole as thiol trapping agent depends on the substituent at the 3 and 5 position of the ring system.
For data set [5], the target named is T2, hog H^+ /K^+ ATPase (Sus scrofa, UniProt P19156).
T2 construct: Potassium stimulated ATP hydrolysis using hog gastric (GI) vesicles; from tissue; host or cells: hog gastric (GI) vesicles
Briefly: Gastric ATPase enzyme inhibition assay. It is filed as biochemical. The note with it: hog gastric vesicles, K+ stimulated ATP hydrolysis. The protocol: Gastric ATPase enzyme inhibition assay
The enzyme used is the hog H^+ /K^+ ATPase (Sachs, et al. J. Biol. Chem. 251:7690-7698, 1976). A modified procedure reported by Yoda A. and Hokin, L.E., Biochem. Res. Commun., 1970, 800-884 is used. Potassium stimulated ATP hydrolysis using hog gastric (GI) vesicles, a preparation enriched in H^+ /K^+ ATPase, is measured.
The difference between activity in the presence of Mg^++ and presence of Mg^++ and K^+ 0 is taken as enzyme activity. Nigericin, a K^+ ionophore, is also present in the (+)K^+ incubation mixture to provide access of K^+ to the vesicle interior. Hydrolysis activity is measured by quantitative analysis of a phosphomolybdate complex. […] The optical density of many drugs used for the inhibition of H^+ /K^+ ATPase interfere in this wavelength. Therefore, a modification of the as say was used wherein the phosphomolybdate complex was reduced with Fiske and Subbarow reducer (1-amino-2-naphthol-4-[…] plus sodium sulfite). This shifts the optical density from 3 20 nm for the oxidized phosphomolybdate complex to 600-700 nm. This modification has the added advantage of providing a means of automated assay when multiple samples being tested. In this modification, the optical density of the assay mixtures was read at 700 nm.
Basal Mg^++ levels are measured in […], 2 mM Na2 ATP, 40 mM Pipes-tris, pH 6.10. 20 mM KCl and 10 μg/ml nigericin is added to determine the extent of stimulation by K^+. Test compounds or vehicle are then added. Enzyme (10 μg/ml) is then added to initiate the reaction. The final volume is 200 μl. The protocol for these assays is shown below.
Zero blanks (water controls) and phosphate standards (200 μl) are added appropriate for assays used: […], 0.050, 0.075, 0.1 . . . 0.5 mM standards. The order of the addition of reagents generally follows as described above. However, it may be more preferable to add either enzyme before ATP if it is important to provide time for pre-cubation with test compounds. Time additions of the last reagent are used to provide a uniform assay time.
The reaction is run for 30 min. to 1 hour. The re action is stopped by addition of 50 μl of a solution prepared by adding 4 volumes of 2.5 M sulfric acid plus one volume of 1.25% (w/v) Fiske and Subbarow reagent. Colour is developed at room temperature for ten minutes and optical density at 700 nm is determined. In the event that a white precipitate forms, the clear supernatants (after mixing and setting) can be used for the determination of enzyme activity.

The nature of data set [6]: Acid stability in 6 molar hydrochloric acid. Type of data set: physicochemical. Particulars: room temperature. The protocol: Acid stability of 7-methoxy-3-[(4-methoxy-3,5-dimethyl-2-pyridyl)oxomethyl]-1,2,4-thiadiazolo[4,5-a]benzimidazole.
To examine acid stability of the captioned compound, the compound was dissolved in a minimum volume of methanol and the resulting solution was added to a 6 molar solution of hydrochloric acid.

Setting [7] is: steady state, 200 μM [inhibitor] (printed 200 μm).
Where [8] appears, read: steady state, 50 μM [inhibitor].

Cathepsin B, sequence (P00787 80-339): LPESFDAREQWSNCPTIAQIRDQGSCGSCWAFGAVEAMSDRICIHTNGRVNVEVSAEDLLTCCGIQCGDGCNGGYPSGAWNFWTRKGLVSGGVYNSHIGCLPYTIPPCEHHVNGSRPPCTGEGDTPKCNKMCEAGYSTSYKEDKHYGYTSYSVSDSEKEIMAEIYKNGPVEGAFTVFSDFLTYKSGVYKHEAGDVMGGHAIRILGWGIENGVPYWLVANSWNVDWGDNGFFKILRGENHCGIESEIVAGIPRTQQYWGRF
Cathepsin L, sequence (P07711 114-333): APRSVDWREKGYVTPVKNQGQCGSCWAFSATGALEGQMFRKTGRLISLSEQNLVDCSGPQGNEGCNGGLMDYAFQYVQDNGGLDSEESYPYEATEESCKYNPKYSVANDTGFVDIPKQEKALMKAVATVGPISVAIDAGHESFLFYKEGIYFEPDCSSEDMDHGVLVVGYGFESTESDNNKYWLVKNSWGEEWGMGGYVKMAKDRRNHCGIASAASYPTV
T2 sequence (P19156 2-1034 limits assumed): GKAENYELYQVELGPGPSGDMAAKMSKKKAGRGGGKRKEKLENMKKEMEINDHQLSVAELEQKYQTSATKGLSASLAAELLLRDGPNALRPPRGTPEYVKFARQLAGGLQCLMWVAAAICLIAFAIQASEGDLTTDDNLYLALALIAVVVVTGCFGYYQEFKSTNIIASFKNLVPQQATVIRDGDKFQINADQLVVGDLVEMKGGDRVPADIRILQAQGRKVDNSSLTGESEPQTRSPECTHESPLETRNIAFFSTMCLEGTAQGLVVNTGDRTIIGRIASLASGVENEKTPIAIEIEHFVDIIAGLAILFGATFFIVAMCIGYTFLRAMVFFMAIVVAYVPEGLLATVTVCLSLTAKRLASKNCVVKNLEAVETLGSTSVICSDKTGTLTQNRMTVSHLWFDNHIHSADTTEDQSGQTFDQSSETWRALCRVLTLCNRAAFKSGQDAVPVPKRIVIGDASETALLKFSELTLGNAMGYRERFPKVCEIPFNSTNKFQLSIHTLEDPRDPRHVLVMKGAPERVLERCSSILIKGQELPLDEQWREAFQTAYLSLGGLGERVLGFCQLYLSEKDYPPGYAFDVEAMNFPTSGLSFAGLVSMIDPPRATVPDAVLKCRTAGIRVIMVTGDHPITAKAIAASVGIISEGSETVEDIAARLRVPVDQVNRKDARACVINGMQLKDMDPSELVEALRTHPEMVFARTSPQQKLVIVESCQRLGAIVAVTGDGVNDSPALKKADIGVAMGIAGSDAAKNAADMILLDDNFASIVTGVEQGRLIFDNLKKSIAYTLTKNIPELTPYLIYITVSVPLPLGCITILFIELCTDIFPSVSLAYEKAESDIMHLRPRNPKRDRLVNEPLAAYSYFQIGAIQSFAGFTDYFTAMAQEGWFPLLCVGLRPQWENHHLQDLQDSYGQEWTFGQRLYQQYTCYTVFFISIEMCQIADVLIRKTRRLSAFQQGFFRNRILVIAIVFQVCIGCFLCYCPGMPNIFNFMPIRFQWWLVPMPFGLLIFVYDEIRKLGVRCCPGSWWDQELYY
T2 sequence (P18434 whole entry partner): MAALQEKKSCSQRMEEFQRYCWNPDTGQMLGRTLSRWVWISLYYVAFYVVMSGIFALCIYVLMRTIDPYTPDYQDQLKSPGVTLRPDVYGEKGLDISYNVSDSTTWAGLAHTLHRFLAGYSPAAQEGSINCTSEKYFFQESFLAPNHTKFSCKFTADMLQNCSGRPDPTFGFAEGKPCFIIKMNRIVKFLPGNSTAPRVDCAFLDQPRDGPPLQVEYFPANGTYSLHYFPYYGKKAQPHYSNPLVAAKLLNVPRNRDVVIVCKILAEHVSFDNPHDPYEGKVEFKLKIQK

For `COC(=O)[C@@H]1CCCN1c1nsc2nc3ccccc3n12` [1,2,4-thiadiazolo [4,5-a]benzimidazol-3-yl-L-proline methyl ester], the figures for the kinact/KI in data set [1], in data set [2] and in data set [3] were 1050 M⁻¹ s⁻¹, 626 M⁻¹ s⁻¹ and 356 M⁻¹ s⁻¹, respectively. The inhibition at 10 µM in data set [1] (steady state, 10 μM [inhibitor]) came out at 99%; in data set [2] (steady state, 10 μM [inhibitor], % sign not given) it was 88%. In data set [3] (steady state, 0.26 μM [inhibitor]), this molecule yielded an inhibition at 0.26 µM of 97%.

In the case of `c1cncc(-c2nsc(-c3cccnc3)n2)c1` [3,5-di(3-pyridyl)-1,2,4-thiadiazole], in data set [4], the “reaction with benzyl mercaptan” value is recorded as “do not react with benzyl mercaptan”.

`c1ccc2c(c1)nc1snc(N3CCNCC3)n12` [3-(1-piperazinyl)-1,2,4-thiadiazolo[4,5-a]benzimidazole]: the EC50 in data set [5] was determined as 1000 nM.

As to `CN1CCN(c2nsc3nc4ccccc4n23)CC1` [3-(4-methyl-1-piperazinyl)-1,2,4-thiadiazolo-[4,5-a]benzimidazole], the kinact/KI in data set [1] was determined as 24 M⁻¹ s⁻¹; in data set [2] it was 19 M⁻¹ s⁻¹; in data set [3], 28 M⁻¹ s⁻¹. Moreover, the values for the inhibition at 200 µM in data set [1] (setting [7]), in data set [2] (steady state) and in data set [3] (steady state) were 98%, 68% and 99%, respectively. This molecule gave an EC50 in data set [5] of 2000 nM.

`c1ccc2c(c1)nc1snc(CN3CCOCC3)n12` [3-(morpholinomethyl)-1,2,4-thiadiazolo[4,5-a]benzimidazole]: the kinact/KI in data set [1] is 7 M⁻¹ s⁻¹; in data set [2] it was 8 M⁻¹ s⁻¹; in data set [3], 7 M⁻¹ s⁻¹. Moreover, the inhibition at 200 µM was 80% in data set [1] (steady state, 200 μM [inhibitor], % sign not given); 60% in data set [2] (steady state); 92% in data set [3] (steady state). Moreover, in data set [5], the EC50 is 200 nM.

For `c1ccc2c(c1)nc1snc(OCCN3CCOCC3)n12` [3-[2-(N-morpholino)ethoxy]-1,2,4-thiadiazolo[4,5-a]benzimidazole], the kinact/KI in data set [1] turned out to be 356 M⁻¹ s⁻¹; in data set [2], 107 M⁻¹ s⁻¹; in data set [3], 5560 M⁻¹ s⁻¹. The molecule also displayed an inhibition at 25 µM in data set [1] (steady state, 25 μM [inhibitor]) of 99%. In data set [2] (setting [8]), at 50 µM the inhibition was 91%. The molecule also gave an inhibition at 0.66 µM in data set [3] (steady state, 0.66 μM [inhibitor]) of 99.6%.

In data set [5], `c1ccc2c(c1)nc1snc(NCCN3CCOCC3)n12` [3-[2-(N-morpholino)ethylamino]l,2,4-thiadiazolo-[4,5-a]benzimidazole] showed an EC50 of 200 nM.

For `O=C(c1ccccn1)c1nsc2nc3ccccc3n12` [3-[oxo(2-pyridyl)methyl]-1,2,4-thiadiazolo [4,5-a]benzimidazole], the results for the kinact/KI in data set [1], in data set [2] and in data set [3] were 68 M⁻¹ s⁻¹, 15 M⁻¹ s⁻¹ and 2480 M⁻¹ s⁻¹, respectively. The inhibition at 200 µM in data set [1] (setting [7]) amounted to 99%; in data set [2] (steady state), 58%. In data set [3] (steady state), this molecule came in with an inhibition at 1 µM of 79%.

`COc1nsc(N)n1` [3-methoxy-5-amino-1,2,4-thiadiazoles, 5-amino-3-methoxy-1,2,4-thiadiazole]: in data set [4], the “reaction with benzyl mercaptan” value is reported as “reacted with benzyl mercaptan”.

With `Cc1nsc(NCc2ccccc2)n1` [3-methyl-5-benzylamino-1,2,4-thiadiazole], the “reaction with benzyl mercaptan” value in data set [4] is on record as “do not react with benzyl mercaptan”.

For `Cc1nsc(N(Cc2ccccc2)Cc2ccccc2)n1` [3-methyl-5-dibenzylamino-1,2,4-thiadiazole], in data set [4], the “reaction with benzyl mercaptan” value is on record as “do not react with benzyl mercaptan”.

For the molecule `COc1nsc(NC(=O)N[C@@H](CC(C)C)C(=O)NCCC(C)C)n1` [Example T11AA], the values for the kinact/KI in data set [1], in data set [2] and in data set [3] were 3480 M⁻¹ s⁻¹, 1060 M⁻¹ s⁻¹ and 3900 M⁻¹ s⁻¹, respectively. The inhibition at 5 µM in data set [1] (steady state) came to 99%; in data set [2] (steady state, 5 μM [inhibitor]), 56%. Moreover, the inhibition at 1 µM in data set [3] (steady state) was determined as 97%.

For the molecule `COc1ccc2[nH]c([S+]([O-])Cc3ncc(C)c(OC)c3C)nc2c1` (stereo not shown) [Omeprazole, reference compound], the acid stability entry in data set [6] is listed as “complete decomposition in a few minutes”.

For `O=C(O)c1nsc2nc3ccccc3n12` [sodium 3-carboxylato-1,2,4-thiadiazolo[4,5-albenzimidazole], the kinact/KI in data set [1] turned out to be 184 M⁻¹ s⁻¹; in data set [2] it was 34 M⁻¹ s⁻¹; in data set [3], 131 M⁻¹ s⁻¹. Further, the inhibition at 50 µM in data set [1] (setting [8]) was found to be 98%. Also, the inhibition at 200 µM in data set [2] (steady state) stood at 85%; in data set [3] (steady state), 99.6%.

`CC(C)CCNC(=O)[C@H](CC(C)C)NC(=O)c1nsc2nc3ccccc3n12` [{1,2,4-thiadiazolo[4,5-a]benzimidazol-3-yl}-carbonyl-L-leucyl isoamylamide]: the kinact/KI in data set [1] came to 307 M⁻¹ s⁻¹; in data set [3], 500 M⁻¹ s⁻¹. The inhibition at 5 µM amounted to 93% in data set [1] (steady state) and 95% in data set [3] (steady state, 5 μM [inhibitor]).
